From US20100152301A1, “Treatment of Viral Infections” (GOVERNMENT OF THE US, AS REPRESENTED BY THE SECRETARY, …, priority 2005, published 2010)

How the values were obtained:
HIV-1 integrase [1] = target: T1, HIV-1 integrase (Human immunodeficiency virus type 1 group M subtype B, UniProt P04585); test: Disintegration assay with Y-oligomer substrate; type: biochemical; details: for IC50: In vitro IC50 Disintegration; for inhibition activity, disintegration: drug concentration of 333 μM; for inhibition at 333 µM: read-out: inhibition activity, disintegration
T1 construct: Expression and purification of the recombinant HIV-1 integrase in Escherichia coli; made in house; host or cells: Escherichia coli
Method: (§1) Recombinant HIV integrase and oligonucleotide substrates. Expression and purification of the recombinant HIV-1 integrase in Escherichia coli were performed according to (Leh et al., 2000; Marchand et al., 2001) with addition of 10% glycerol to all buffers. The preparation of the Q148C/SSS-mutant integrase will be described elsewhere (Johnson et al., 2005). The oligonucleotide substrates, except those used for the disulfide crosslinking (FIG. 5A), were purchased from Integrated DNA Technologies, Inc. (Coraville, Iowa) and purified by polyacrylamide gel. The single-stranded oligonucleotides were 5′-end labeled with [γ^32P]-ATP (Perkin Elmer, Wellesley, M A) and T4 polynucleotide kinase (New England BioLabs, Ipswich, M A). Unincorporated nucleotide was removed using mini Quick Spin Oligo columns (Roche Diagnostics, Indianapolis, Ind.). Substrates were obtained after annealing with complementary non-labeled oligonucleotides. The thiol-modified substrate (FIG. 5A) for disulfide crosslinking assay was synthesized as essentially described by W. Santos and G. Verdine (Department of Chemistry and Chemical Biology, Harvard University, Cambridge, Mass.) (They and Verdine, 2002).
(§2) Integrase catalytic assays. Reactions were performed in 10 μl with 300 nM of recombinant IN, 20 nM of the 5′-end [^32P]-labeled oligonucleotide substrates and inhibitors at the indicated concentrations. 10% DMSO was included in controls. Reactions were incubated for 40 min at 37° C. in a buffer containing a final concentration of 25 mM MOPS, pH 7.2, 25 mM NaCl, 14.3 mM β-mercaptoethanol and 7.5 mM of divalent cations (MgCl2 or MnCl2 as indicated). Reactions were stopped by addition of 20 μl loading dye (10 mM EDTA, 98% deionized formamide, 0.025% xylene cyanol and 0.025% bromophenol blue). Reactions were heated at 95° C. for 1 min before electrophoresis in 20% polyacrylamide-7 M urea gels. Gels were dried and reaction products were visualized and quantitated with a Molecular Dynamics PhosphorImager (Sunnyvale, Calif.). Densitometric analyses were performed using ImageQuant from the Molecular Dynamics software. The concentrations at which enzyme activity was reduced by 50% (IC50), was determined using “Prism” software (GraphPad Software, San Diego, Calif.) for nonlinear regression to fit dose-response data to logistic curve models.

HIV-1 integrase [2] = target: T1, HIV-1 integrase; test: Strand transfer assay with preprocessed (19/21) DNA substrate; type: biochemical; details: for IC50: In vitro IC50 Preprocessed substrate; for inhibition at 333 µM: drug concentration of 333 μM
Method: as §1, §2

HIV-1 integrase [3] = target: T1, HIV-1 integrase; test: Integrase catalytic assay, 3′-processing (3′-P), 21 bp duplex substrate; type: biochemical; details: for IC50: In vitro IC50 21 bp substrate 3′-P; for inhibition at 333 µM: drug concentration of 333 μM
Method: as §1, §2

[4] = target: T2, Q148C/SSS-mutant integrase (Human immunodeficiency virus type 1 group M subtype B, UniProt P04585, C1203S/C1212S/C1427S/Q1295C); test: biochemical; type: binding, HIV-1; details: drug 1 mM; Mg2+ or Mn2+ (FIG. 5B)
T2 construct: 10 μM recombinant Q148C/SSS-mutant integrase was incubated with 10 μM DNA substrate; made in house
Method: Briefly, 10 μM recombinant Q148C/SSS-mutant integrase was incubated with 10 μM DNA substrate (FIG. 5A) containing tethered thiols in the presence of 20 mM Tris, pH 7.4, 10% glycerol and 7.5 mM of divalent cations (MgCl2 or MnCl2 as indicated) for 20 min at 37° C. Reactions were stopped by the addition of 20 mM methylmethanethiosulfonate (capping reagent). Non-reducing gel loading buffer (100 mM Tris-HCl, pH 6.8, 4% SDS, 0.2% bromophenol blue, 20% glycerol) was added and samples were heated at 95° C. before loading onto 16% tricine gels (Invitrogen, Carlsbad, Calif.). Gels were stained with Microwave Blue according to manufacturer's recommendations (Protiga, Frederick, Md.).
DNA (20 nM) containing a [5′-^32P]-label on one strand and a thiol-modified cytosine on the other strand was added and reactions were capped with methylmethanethiosulfonate at 1 minute. Following capping, non-reducing gel loading buffer (100 mM Tris-HCl, pH 6.8, 4% SDS, 0.2% bromophenol blue, 20% glycerol) was added and samples were directly loaded on 16% tricine gels (Invitrogen, Carlsbad, Calif.). Gels were dried and reaction products were quantitated using the same way as described above.

HIV-1 integrase [5] = target: T1, HIV-1 integrase; test: Integrase catalytic assay, strand transfer (ST), 21 bp duplex substrate; type: biochemical; details: for inhibition activity, ST, 21 bp substrate: drug concentration of 333 μM; for inhibition at 333 µM: read-out: inhibition activity, ST, 21 bp substrate
Method: as §1, §2

[6] = read-out: inhibition activity, preprocessed substrate, Mg2+
[7] = read-out: inhibition activity, preprocessed substrate, Mn2+
[8] = read-out: inhibition activity, 3′-P, 21 bp substrate, Mg2+
[9] = read-out: inhibition activity, 3′-P, 21 bp substrate, Mn2+
[10] = In vitro IC50 21 bp substrate ST, Mg2+
[11] = In vitro IC50 21 bp substrate ST, Mn2+
[12] = Mn2+ as cofactor, U5 LTR DNA substrate

Structure (SMILES)	IC50 (HIV-1 integrase [1]; Mg2+) [µM]	IC50 (HIV-1 integrase [1]; Mn2+) [µM]	inhibition activity, disintegration (HIV-1 integrase [1]; Mn2+)	inhibition at 333 µM (HIV-1 integrase [1]) [%]	IC50 (HIV-1 integrase [2]; Mg2+) [µM]	IC50 (HIV-1 integrase [2]; Mn2+) [µM]	inhibition at 333 µM (HIV-1 integrase [2]; [6]) [%]	inhibition at 333 µM (HIV-1 integrase [2]; [7]) [%]	IC50 (HIV-1 integrase [3]; Mg2+) [µM]	IC50 (HIV-1 integrase [3]; Mn2+) [µM]	inhibition at 333 µM (HIV-1 integrase [3]; [8]) [%]	inhibition at 333 µM (HIV-1 integrase [3]; [9]) [%]	inhibition of integrase-DNA disulfide-crosslinking (in words) [4]	IC50 (HIV-1 integrase [5]; [10]) [µM]	IC50 (HIV-1 integrase [5]; [11]) [µM]	potency against HIV-1 integrase relative to the minimal tropolone core (HIV-1 integrase [5]; [12])	inhibition activity, ST, 21 bp substrate (HIV-1 integrase [5]; Mn2+)	inhibition at 333 µM (HIV-1 integrase [5]) [%]	IC50 (HIV-1 integrase [5]; IC50, inhibition of HIV-1 integrase (first screen), Mn2+ as cofactor, U5 LTR DNA substrate, 3′-P or ST not specified) [µM]
CC(C)c1cccc(=O)c(O)c1 [NSC 18804, β-thujaplicin]	> 333	> 333	1 (inhibition activity ≦ 5%)	< 5	> 333	> 333	5 to 20	5 to 20	> 333	> 333	20 to 40	20 to 40	lack of inhibition	> 333	> 333	failed to increase potency	2 (5% < inhibition activity < 20%)	5 to 20	
CC(C)c1ccccc(=O)c1O [NSC 18805, α-thujaplicin]	> 333	> 333	1 (inhibition activity ≦ 5%)	< 5	> 333	> 333	< 5	< 5	> 333	> 333	5 to 20	5 to 20		> 333	> 333	failed to increase potency	1 (inhibition activity ≦ 5%)	< 5	
CC(C)c1ccc(O)c(=O)cc1 [NSC 43338, γ-thujaplicin]	> 333	> 333	1 (inhibition activity ≦ 5%)	< 5	> 333	> 333	< 5	< 5	> 333	> 333	< 5	< 5		> 333	> 333	failed to increase potency	1 (inhibition activity ≦ 5%)	< 5	
CC(C)=CCc1ccc(=O)c(O)cc1C(C)C [NSC 43339, nootkatin]	> 333	> 333	1 (inhibition activity ≦ 5%)	< 5	> 333	> 333	5 to 20	20 to 40	> 333	> 333	5 to 20	5 to 20		> 333	> 333	failed to increase potency	3 (20% < inhibition activity < 40% at drug concentration of 333 μM)	20 to 40	
O=c1cccccc1O [NSC 89303, tropolone]	> 333	> 333	1 (inhibition activity ≦ 5%)	< 5	> 333	> 333	5 to 20	5 to 20	> 333	> 333	< 5	5 to 20		> 333	> 333		3 (20% < inhibition activity < 40% at drug concentration of 333 μM)	20 to 40	> 333
C=C(C)C1CCc2c(c(C)cc(O)c(=O)c2O)C1 (stereo not drawn) [NSC 310618, manicol]	> 333	98.3		5 to 20	> 333	25.8	20 to 40		182 ± 42.5	20.2				71.1 ± 3.8	11.7 ± 5.2				
